Results on three molecules are retold here after US10906977B2, “Enhancing the therapeutic activity of immune checkpoint inhibitor” (Maine Medical Center Research Institute, priority 2016, dated 2021).

The test system of assay [1] is chick chorioallantoic membrane (CAM). Put plainly: Chick CAM inflammation assay, FGF-2 induced, no cortisone acetate. The conditions noted are these: FGF-2 induced; vs no treatment or control antibody; FIG. 3E. Format: in vivo. How it is done: The chick chorioallantoic membrane (CAM) assays were carried out with some modifications (19). For all experiments CAMs of 10-day-old chick embryos obtained from Charles River (North Franklin, Conn.) were separated from the shell membrane. Filter discs either non-treated (inflammation assays) pretreated (angiogenesis assays) with cortisone acetate (3.0 mg/ml) containing RPMI only or FGF-2 (40 ng). CAMs were either non-treated or treated topically with Mab XL313, XL166 or a non-specific control antibody (10 μg/embryo every 24 h for three consecutive treatments). For peptide induction experiments, CAMs were stimulated with 100 ng/ml of the RGD peptides (P-1, P-2, P-C) in the presence or absence of the P38MAPK inhibitor, SB202190 (10 μM). At the end of the incubation period the embryos were sacrificed and the CAM tissues were analyzed. Angiogenesis was quantified by counting the number of angiogenic branching blood vessels within the area of the filter disc. The angiogenic index was determined by subtracting the mean number of blood vessel branch points from untreated CAMs from each experimental condition. Eight to twelve embryos were used per condition and experiments were repeated at least three times.
CAMs examined for accumulation of granulation tissue were harvested, fixed in 4% PFA and paraffin embedded and sectioned (4 μm) and stained with Giemsa. CAM tissues analyzed via immunofluorescence were harvested, embedded with OCT, snap frozen and sectioned ([…]). Frozen sections were fixed in 50% methanol/50% acetone, air dried and blocked with 2.5% BSA for 1 h at 37° C. For expression of the XL313 and XL166 epitopes as well as monocyte/macrophages, FGF-2 stimulated CAM tissues were stained with Mabs XL313, XL166 (50 μg/ml) or KUL1 (1:250) and then incubated with Alexa-488 labeled secondary antibodies (1:2000 dilution). […] Using a similar strategy, sections of RGD peptide-treated CAM tissues were analyzed for phosphorylated-P38MAPK in angiogenic vessels by co-incubation of anti-phospho-P38MAPK (1:50) and anti-vWf (1:500) antibodies. […]

In assay [2] the test system is human umbilical vein endothelial cell (HUVEC). Description: Cell adhesion to immobilized collagen RGD peptides. Format: cell-based. The conditions noted are these: peptide immobilized 100 μg/ml; FIG. 1A. How it is done: RGD peptides (P-1, P-2, P-3, P-4, P-5, and P-C) were immobilized (100 μg/ml) to wells. HUVEC, HMVEC, HRMVEC, and HDF cells were suspended in adhesion buffer (RPMI containing 1 mM MgCl2, 0.2 mM MnCl2 and 0.5% BSA) and 1×10^5 cells were seeded into the wells in the presence or absence of P4C10, LM609, P1F6 or control antibodies (100 μg/ml). Cells were allowed to attach for 25 min at 37° C. Media containing non-attached cells was aspirated and attached cells were washed with PBS and stained with crystal violet. Cell adhesion was quantified by measuring the optical density of eluted dye. Adhesion assays were completed at least three times with triplicate wells.

Assay [3] has as its target integrin αvβ3 on cells (HUVEC endothelial cells, M21 melanoma cells, human T-cells) (human, UniProt P06756 31-1048; P05106 27-788). Put plainly: cell-based or functional assay.

Chain of integrin αvβ3 on cells (HUVEC endothelial cells, M21 melanoma cells, human T-cells) (P06756 31-1048, chain 1 of 2): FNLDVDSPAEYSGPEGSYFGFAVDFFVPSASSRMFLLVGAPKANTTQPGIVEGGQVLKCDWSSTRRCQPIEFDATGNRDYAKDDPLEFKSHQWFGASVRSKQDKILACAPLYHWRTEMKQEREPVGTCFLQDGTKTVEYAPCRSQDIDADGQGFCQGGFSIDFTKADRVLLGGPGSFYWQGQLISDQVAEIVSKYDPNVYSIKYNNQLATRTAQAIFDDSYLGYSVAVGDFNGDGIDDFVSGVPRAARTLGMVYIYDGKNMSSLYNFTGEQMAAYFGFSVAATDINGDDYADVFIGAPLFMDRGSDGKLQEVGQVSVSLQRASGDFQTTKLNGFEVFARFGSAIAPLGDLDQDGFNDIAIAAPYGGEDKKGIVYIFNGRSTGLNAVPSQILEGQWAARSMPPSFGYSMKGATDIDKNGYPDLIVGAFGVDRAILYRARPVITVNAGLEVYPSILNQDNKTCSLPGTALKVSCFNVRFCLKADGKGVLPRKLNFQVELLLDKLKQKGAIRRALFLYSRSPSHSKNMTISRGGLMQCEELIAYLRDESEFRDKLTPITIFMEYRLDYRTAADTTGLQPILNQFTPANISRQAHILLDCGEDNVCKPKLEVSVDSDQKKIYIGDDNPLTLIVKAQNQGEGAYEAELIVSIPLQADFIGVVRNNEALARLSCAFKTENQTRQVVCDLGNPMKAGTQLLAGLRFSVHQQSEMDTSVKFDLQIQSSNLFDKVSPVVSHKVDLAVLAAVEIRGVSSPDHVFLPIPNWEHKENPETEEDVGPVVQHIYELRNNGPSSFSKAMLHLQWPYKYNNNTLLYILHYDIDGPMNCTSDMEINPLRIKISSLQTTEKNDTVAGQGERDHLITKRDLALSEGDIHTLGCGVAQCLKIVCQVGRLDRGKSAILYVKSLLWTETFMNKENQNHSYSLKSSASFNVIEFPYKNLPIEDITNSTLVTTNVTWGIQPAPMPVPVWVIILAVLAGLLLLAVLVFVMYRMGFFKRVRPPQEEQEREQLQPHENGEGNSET
Chain of integrin αvβ3 on cells (HUVEC endothelial cells, M21 melanoma cells, human T-cells) (P05106 27-788, chain 2 of 2): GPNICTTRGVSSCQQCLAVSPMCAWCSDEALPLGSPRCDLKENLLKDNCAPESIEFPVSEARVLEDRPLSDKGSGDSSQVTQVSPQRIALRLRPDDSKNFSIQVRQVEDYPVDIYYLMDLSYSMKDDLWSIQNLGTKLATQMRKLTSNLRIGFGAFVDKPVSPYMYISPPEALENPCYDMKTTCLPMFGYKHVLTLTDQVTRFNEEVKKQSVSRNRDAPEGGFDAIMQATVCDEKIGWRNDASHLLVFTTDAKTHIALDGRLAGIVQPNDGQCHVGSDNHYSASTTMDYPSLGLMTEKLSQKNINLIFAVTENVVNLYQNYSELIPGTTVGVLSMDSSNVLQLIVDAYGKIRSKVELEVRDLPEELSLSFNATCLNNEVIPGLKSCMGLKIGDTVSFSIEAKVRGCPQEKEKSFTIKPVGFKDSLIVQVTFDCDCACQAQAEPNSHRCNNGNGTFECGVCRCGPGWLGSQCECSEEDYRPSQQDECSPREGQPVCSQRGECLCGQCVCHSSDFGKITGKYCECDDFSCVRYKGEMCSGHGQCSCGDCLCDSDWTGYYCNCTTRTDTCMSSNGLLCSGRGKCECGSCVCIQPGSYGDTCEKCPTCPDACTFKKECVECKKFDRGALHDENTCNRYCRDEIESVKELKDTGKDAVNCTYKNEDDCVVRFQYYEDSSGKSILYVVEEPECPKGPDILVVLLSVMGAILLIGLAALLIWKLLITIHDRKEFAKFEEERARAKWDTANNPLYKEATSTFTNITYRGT

With `CC(=O)OCC(=O)[C@@]1(O)CC[C@H]2[C@@H]3CCC4=CC(=O)CC[C@]4(C)[C@H]3C(=O)C[C@@]21C` [cortisone acetate], the “reduction of the percentage of CAMs exhibiting thickening / inflammation” value in assay [1] is recorded as “greater than 80%”. For CRGPRGDQGPC [Mab P-5], the “HUVEC adhesion to immobilized peptide” value in assay [2] was “highest levels of adhesion”. In the case of CQGPRGDKGEC [Synthetic collagen RGD containing peptide P-2 (CQGPRGDKGEC)], in assay [3], the “Src phosphorylation in endothelial cells attached to the peptide (Western blot)” value is around 2 fold and the “β3-integrin phosphorylation in endothelial cells attached to the peptide (Western blot)” value was above 3 fold.
